Test results from ChEMBL document CHEMBL5346962, “Discovery of Sulanemadlin (ALRN-6924), the First Cell-Permeating, Stabilized α-Helical Peptide in Clinical Development” (J Med Chem, 2023).
pEC50: −log10 of the molar value. Calls of active or inactive are those of the source. No cut-off for these calls is given here.

Key:
[1] = AUC (all) in rat at 2.5 mg/kg by LC-MS/MS analysis; format: ADME, organism-based; parameters: dose 2.5 mg/kg; details: in vivo
SJSA-1 = assay: Cytotoxicity against human SJSA-1 cells incubated for 72 hrs in presence of 10% FBS by MTT assay; details: SJSA-1, 72 h
Mus musculus [2] = assay: Protection against topotecan-induced crypt loss in gastrointestinal tract of C57BL/6 mouse at 2.4 mg/kg administered on day 0 to 4 and co-administered 30 mins prior to topotecan on day 1 to 4 followed by topotecan administration on day 5 measured on day 9 by H&E staining based analysis; format: functional, organism-based; details: time 9.0 day
Fibroblast [3] = assay: Protection against chemotherapy-induced apoptosis in human fibroblast assessed as decrease in caspase-3/7 level preincubated for 16 hrs followed by gemcitabine.HCl addition measured after 32 hrs; format: functional, cell-based; details: dose 4.6-10 µM, time 48.0 hrs
Fibroblast [4] = assay: Protection against chemotherapy-induced apoptosis in human fibroblast assessed as decrease in caspase-3/7 level preincubated for 16 hrs followed by paclitaxel addition measured after 32 hrs; format: functional, cell-based; details: dose 4.6-10 µM, time 48.0 hrs
MCF7 [5] = assay: Antitumor activity against human MCF7 cells xenografted in athymic nude BALB/c mouse assessed as increase in cPARP protein level at 20 mg/kg, iv by immunohistochemical analysis; format: functional, organism-based; details: time <= 48.0 hrs, TDE = time-dependent effect
Fibroblast [6] = assay: Protection against chemotherapy-induced apoptosis in human fibroblast assessed as decrease in caspase-3/7 level preincubated for 16 hrs followed by docetaxel trihydrate addition measured after 32 hrs; format: functional, cell-based; details: dose 4.6-10 µM, time 48.0 hrs
CTG-0449 = assay: Antitumor activity against patient-derived human CTG-0449 cells xenografted in athymic nu/nu mouse model of AML assessed as tumor growth inhibition administered intravenously twice a week measured for 20 days; format: functional, cell-based; details: dose 10-20 mg/kg, route iv, time 20.0 day
Bone marrow cell [7] = assay: Protection against cell cycle arrest at S phase in bone marrow cells of C57BL/6 mouse at 10 mg/kg, iv measured for 8 hrs by FACS analysis; format: functional, organism-based
Mus musculus [8] = assay: Protection against topotecan-induced epithelium hyperplasia in gastrointestinal tract of C57BL/6 mouse at 2.4 mg/kg administered on day 0 to 4 and co-administered 30 mins prior to topotecan on day 1 to 4 followed by topotecan administration on day 5 measured on day 9 by H&E staining based analysis; format: functional, organism-based; details: time 9.0 day
Bone marrow cell [9] = assay: Downregulation of Ki67 expression level in bone marrow cells of C57BL/6 mouse at 2.4 mg/kg, iv administered every 8 hrs measured for 16 hrs by immunohistochemical analysis; format: functional, organism-based
[10] = Cmax in mouse at 5 mg/kg by LC-MS/MS analysis; format: ADME, organism-based; parameters: dose 5 mg/kg; details: in vivo
[11] = Cmax in cynomolgous monkey at 10 mg/kg by LC-MS/MS analysis; format: ADME, organism-based, Macaca fascicularis; parameters: dose 10 mg/kg; details: cynomolgus monkey, in vivo
MCF7 [12] = assay: Antitumor activity against human MCF7 cells xenografted in athymic nude BALB/c mouse assessed as upregulation of p53 protein level at 20 mg/kg, iv by immunohistochemical analysis; format: functional, organism-based; details: time <= 48.0 hrs, TDE = time-dependent effect
[13] = Cmax in rat at 2.5 mg/kg by LC-MS/MS analysis; format: ADME, organism-based; parameters: dose 2.5 mg/kg; details: in vivo
Fibroblast [14] = assay: Protection against chemotherapy-induced apoptosis in human fibroblast assessed as decrease in caspase-3/7 level preincubated for 16 hrs followed by oxaliplatin addition measured after 32 hrs; format: functional, cell-based; details: dose 4.6-10 µM, time 48.0 hrs
[15] = Induction of cell cycle arrest in human CD34+ cells assessed as accumulation at S phase at 2.5 uM incubated for 24 hrs by flow cytometry (reference value: 27.5 +/- 5.8%); format: toxicity, cell-based; details: cd34-positive (myeloid/lymphoid) cell
[16] = AUC (all) in mouse at 5 mg/kg by LC-MS/MS analysis; format: ADME, organism-based; parameters: dose 5 mg/kg; details: in vivo
[17] = Plasma protein binding in monkey at 250 uM; format: ADME, cell-free, Macaca mulatta; details: rhesus monkey, read-out: PPB (converted)
BT-474 [18] = assay: […] chemotherapy-induced apoptosis in human BT-474 cells assessed as decrease in caspase-3/7 level at 4.6 to 10 uM preincubated for 16 hrs followed by paclitaxel addition measured after 32 hrs; format: functional, cell-based; details: dose 4.6-10 µM, time 48.0 hrs
[19] = AUC (all) in rat at 10 mg/kg by LC-MS/MS analysis; format: ADME, organism-based; parameters: dose 10 mg/kg; details: in vivo
[20] = AUC (all) in cynomolgous monkey at 5 mg/kg by LC-MS/MS analysis; format: ADME, organism-based, Macaca fascicularis; parameters: dose 5 mg/kg; details: cynomolgus monkey, in vivo
[21] = Clearance in rat at 2.5 mg/kg by LC-MS/MS analysis; format: ADME, organism-based; details: in vivo
MCF7 [22] = assay: Antitumor activity against human MCF7 cells xenografted in athymic nude BALB/c mouse assessed as tumor regression at 20 mg/kg, iv measured upto 48 hrs by immunohistochemical analysis; format: functional, organism-based
[23] = Clearance in rat at 5 mg/kg by LC-MS/MS analysis; format: ADME, organism-based; details: in vivo
[24] = Plasma protein binding in human assessed as unbound fraction at >200 uM; format: ADME, cell-free
[25] = Induction of cell cycle arrest in human CD34+ cells at 1 uM incubated for 24 hrs followed by compound wash-out and addition of fresh-medium containing compounds measured after 24 hrs by flow cytometry; format: toxicity, cell-based; details: cd34-positive (myeloid/lymphoid) cell, 48 h
[26] = Plasma protein binding in monkey at 2 to 50 uM; format: ADME, cell-free, Macaca mulatta; details: rhesus monkey, dose 2-50 µM, read-out: PPB (converted)
Fibroblast [27] = assay: Protection against chemotherapy-induced apoptosis in human fibroblast assessed as decrease in caspase-3/7 level preincubated for 16 hrs followed by carboplatin addition measured after 32 hrs; format: functional, cell-based; details: dose 4.6-10 µM, time 48.0 hrs
Fibroblast [28] = assay: Protection against apoptosis in human fibroblast assessed as decrease in chemotherapy-induced caspase-3/7 level preincubated for 16 hrs followed by etoposide addition measured after 32 hrs; format: functional, cell-based; details: dose 4.6-10 µM, time 48.0 hrs
BT-474 [29] = assay: […] chemotherapy-induced apoptosis in human BT-474 cells assessed as decrease in caspase-3/7 level at 4.6 to 10 uM preincubated for 16 hrs followed by doxorubicin addition measured after 32 hrs; format: functional, cell-based; details: dose 4.6-10 µM, time 48.0 hrs
NCI-H211 = assay: Antitumor activity against human NCI-H211 cells xenografted in athymic nu/nu mouse assessed as reduction in tumor volume at 8 mg/kg administered on day 0 to 4 and co-administered 30 mins prior to topotecan on day 1 to 4 followed by topotecan administration on day 5 measured for 90 days; format: functional, organism-based; details: time 90.0 day
[30] = Induction of cell cycle arrest in human CD34+ cells assessed as accumulation at S phase at 0.1 uM incubated for 24 hrs by flow cytometry (reference value: 27.5 +/- 5.8%); format: toxicity, cell-based; details: cd34-positive (myeloid/lymphoid) cell
MC-38 = assay: Antitumor activity against mouse MC38 cells allografted in C57BL/6 mouse assessed as reduction in tumor volume at 8 mg/kg administered on day 0 to 4 and co-administered 30 mins prior to topotecan on day 1 to 4 followed by topotecan administration on day 5 measured for 40 days; format: functional, organism-based; details: time 40.0 day
[31] = Drug uptake in tumor of athymic nu/nu mouse xenografted with human SJSA-1 cells assessed as half life of metabolite ALRN-8714 at 25 mg/kg, iv measured for 24 hrs by LC-MS-MS analysis; format: ADME, organism-based, Neoplasm; details: in vivo
Bone marrow cell [32] = assay: Upregulation of p21 expression level in bone marrow cells of C57BL/6 mouse at 2.4 mg/kg, iv administered every 8 hrs measured for 16 hrs by immunohistochemical analysis; format: functional, organism-based
[33] = Induction of cell cycle arrest in human CD34+ cells assessed as accumulation at S phase at 5 uM incubated for 24 hrs by flow cytometry (reference value: 27.5 +/- 5.8%); format: toxicity, cell-based; details: cd34-positive (myeloid/lymphoid) cell

For `CC(=O)N[C@@H](CC(C)C)C(=O)N[C@H](C(=O)N[C@@H](Cc1ccccc1)C(=O)N[C@]1(C)CCCCCC/C=C/CCC[C@@](C)(C(=O)N[C@@H](C)C(=O)N[C@@H](C)C(=O)N[C@@H](C)C(=O)N[C@@H](C)C(=O)N[C@@H](C)C(=O)N[C@H](C)C(N)=O)NC(=O)[C@H](CC(C)C)NC(=O)[C@H](CCC(N)=O)NC(=O)[C@H](C)NC(=O)[C@H](Cc2c[nH]c3ccccc23)NC(=O)[C@H](Cc2ccc(O)cc2)NC(=O)[C@H](CCC(=O)O)NC1=O)[C@@H](C)O`, the AUC [1] was 90.5 µg·h/mL, the pEC50 (SJSA-1) was 6.52 and the Activity (Mus musculus [2]) was “Active”. For the same compound, the Activity (Fibroblast [3]) was “Dose-Dependent Effect”, the Activity (Fibroblast [4]) was “Dose-Dependent Effect” and the Activity (MCF7 [5]) was “Tde”. For the same compound, the Activity (Fibroblast [6]) was “Dose-Dependent Effect”, the Activity (CTG-0449) was “Dose-Dependent Effect” and the Activity (Bone marrow cell [7]) was “Active”. For the same compound, the Activity (Mus musculus [8]) was “Active”, the Activity (Bone marrow cell [9]) was “Active” and the Cmax [10] was 67.8 µg/mL. For the same compound, the Cmax [11] was 236 µg/mL, the Activity (MCF7 [12]) was “Tde” and the Cmax [13] was 49.9 µg/mL. The Activity (Fibroblast [14]) was “Dose-Dependent Effect”, the Activity [15] was 0.5% and the AUC [16] was 450 µg·h/mL. The fraction unbound at 250 µM [17] was 0.12, the Activity (BT-474 [18]) was “inactive” and the AUC [19] was 562 µg·h/mL. For the same compound, the AUC [20] was 914 µg·h/mL, the clearance [21] was 0.467 mL/min/kg and the Activity (MCF7 [22]) was “inactive”. For the same compound, the clearance [23] was 0.4 mL/min/kg, the fraction unbound [24] was 0.12 and the Activity [25] was “Non-Toxic”. The fraction unbound at up to 50 µM [26] was 0.08, the Activity (Fibroblast [27]) was “Dose-Dependent Effect” and the Activity (Fibroblast [28]) was “Dose-Dependent Effect”. For the same compound, the Activity (BT-474 [29]) was “inactive”, the Activity (NCI-H211) was “Active” and the Activity [30] was 21.35%. The Activity (MC-38) was “Active”, the t1/2 [31] was 9 h and the Activity (Bone marrow cell [32]) was “Active”. For the same compound, the Activity [33] was 0.22%.
